How the values were obtained:
[1] = system: DNFB-induced persistent itch behavior of mice; test: DNFB model of persistent itch (allergic contact dermatitis); type: in vivo; conditions: i.p. after the second DNFB exposure, vs vehicle
Description: Furthermore, the effect of Compound 6 in chronic itch was examined in a model of allergic contact dermatitis^31. In brief, the fur on the dorsolateral aspect of the neck was shaved under brief isoflurane anesthesia. Three to four days thereafter, the shaved skin area was painted with 100 μL of 0.15% 2,4-dinitrofluorobenzene (DNFB) in acetone/olive oil (3:1). After 10-11 days, the skin was shaved again and the DNFB solution was painted 3-4 days thereafter (i.e., two painting sessions 14 days apart). Ninety minutes after the second painting, mice were habituated for 15 min in separate plexiglass cylinders (30 cm diameter).
Compounds or vehicle (10% 2-hydroxypropyl-β-cyclodextrine in 0.9% saline) were i.p. administered, and 15 min thereafter spontaneous scratching was recorded over 30 min by videotaping (FIG. 10A).

[2] = system: heart rate and breath rate of mice; test: Pulse oximetry on conscious, freely moving mice; type: in vivo; conditions: 10 mg/kg i.p., observation period of 30 min
Description: Finally, potential side effects of Compound 6 were assessed by measuring cardiovascular functions by pulse oximetry.

IB4-binding DRG neurons = test: Whole-cell current-clamp recordings on IB4-binding DRG neurons; type: cell-based, mice; conditions: 50 μM
Description: A DRG neuron primary cell culture was prepared and stimulated with an inflammatory soup overnight to induce hyperexcitability. In brief, naïve C57BL/6N mice (age 4-8 weeks) were killed by CO2 inhalation and lumbar (L1-L5) DRGs were transferred to hanks' balanced salt solution (Gibco, Thermo Fisher Scientific). After incubation with 500 U/mL collagenase IV and 2.5 U/ml dispase II (both from Sigma Aldrich) for 60 min, including carefully shaking every 20 min, DRGs were washed and gently triturated twice with a fire-polished Pasteur pipette in neurobasal medium (Gibco, Thermo Fisher Scientific) including 10% FBS and 0.5 mM GlutMax (Gibco, Thermo Fisher Scientific). Dissociated DRGs were seeded onto poly-D-lysine-coated (100 μg/mL) coverslips and cultured in neurobasal medium supplemented with 2% B27 (Gibco, Thermo Fisher Scientific), 1% penicillin/streptomycin and 0.5 mM GlutMax in 5% CO2 at 37° C.
In order to simulate a pathological state, DRG neuronal cultures were incubated with an inflammatory soup (histamine: 10 μM, PGE2: 10 μM, serotonin: 10 μM, bradykinin: 10 μM)^33 overnight and performed recordings on cells that bind isolectin B4, a marker of nonpeptidergic C-fiber neurons including the itch-sensitive neuronal populations (NP1-NP3)^4 in mice. Before recording, DRG neurons were preincubated with 10 μg/mL FITC-conjugated IB4 (Sigma-Aldrich) for 5-10 min to select for Slack-expressing neurons.
Whole-cell current clamp recordings were obtained using an EPC 9 amplifier combined with Patchmaster software (HEKA Electronics, Lambrecht/Pfalz, Germany). General settings, pipette and extracellular solutions were used as described above. Evoked action potentials (AP) were elicited by 10 ms current injections starting at 0 pA in 20 pA increments to determine electrophysiological parameters. Action potential (AP) firing was induced by depolarizing current pulses (200-950 pA at 150 pA intervals, 1000 ms duration). […] Number of APs before and after compound application were counted at the same current injection step.

[3] = Microsomal stability assay in liver microsomes; type: in vitro ADME, Sprague-Dawley rats; conditions: 10 μM, rat liver microsomes
Description: For Compound 10, the metabolic stability in liver microsomes as shown in Table 4 was determined by the following assay. The test compound was dissolved in DMSO (1 mM). The solubilized test compound (5 μL, final concentration 10 μM) was preincubated at 37° C. in 432 μL of phosphate buffer (0.1 M, pH=7.4) together with 50 μL of NADPH regenerating system (30 mM glucose-6-phosphate, 4 U/mL glucose 6-phosphate dehydrogenase, 10 mM NADP, 30 mM MgCl2). After 5 min, the reaction was started by the addition of 13 μL of microsome mix from the liver of Sprague-Dawley rats (Invitrogen; 20 mg protein/mL in 0.1 M phosphate buffer) in a shaking water bath at 37° C. The reaction was stopped by adding 500 μL of ice-cold methanol at 0, 15, 30, and 60 min. The samples were centrifuged at 5000×g for 5 min at 4° C., and the test compound was quantified from the supernatants by HPLC: the composition of the mobile phase was adapted to the test compound in a range of MeOH 40-90% and water (0.1% formic acid) 10-60%. Flow rate: 1 mL/min; stationary phase: Purospher STAR, RP18, 5 μm, 125×4; precolumn: Purospher STAR, RP18, 5 μm, 4×4; detection wavelength: 254 and 280 nm; injection volume: 50 μL. Control samples were performed to check the test compound's stability in the reaction mixture. First control was without NADPH, which is needed for the enzymatic activity of the microsomes, second control was with inactivated microsomes (incubated for 20 min at 90° C.), and third control was without the test compound (to determine the baseline). The amounts of the test compound were quantified by an external calibration curve. Data are expressed as the mean±SEM remaining compound from three independent experiments. In vitro half-life was calculated by a logarithmic-linear transformation of the remaining amounts of nonmetabolized test compound versus time.

[4] = injection of small currents (0-220 pA)

Metabolic stability (remaining compound) ([3]; 15 min) [%]	Metabolic stability (remaining compound) ([3]; 30 min) [%]	Metabolic stability (remaining compound) ([3]; 60 min) [%]	SMILES	number of head shakes, DNFB model [1]	number of scratching bouts, DNFB model [1]	breath rate [2]	heart rate [2]	number of AP fired (IB4-binding DRG neurons; current injections 200-950 pA, inflammatory soup overnight)	AP amplitude (IB4-binding DRG neurons; [4])	rheobase (IB4-binding DRG neurons; [4])
			O=C(O)COCCN1CCN(C2=Nc3ccccc3Oc3ccc(Cl)cc32)CC1 [Compound 6, 2-(2-(4-(2-Chlorodibenzo[b,f][1,4]oxazepin-11-yl)piperazin-1-yl)ethoxy) acetic acid]	significantly inhibited	significantly inhibited	did neither affect	did neither affect	profound decrease	significantly lower	significantly increased
55	35	16	O=c1nc(CN2CCN(C3=Nc4ccccc4Oc4ccc(Cl)cc43)CC2)[nH][nH]1 [Compound 10, 5-((4-(2-Chlorodibenzo[b,f][1,4]oxazepin-11-yl)piperazin-1-yl)methyl)-1,2-dihydro-3H-1,2,4-triazol-3-one]							
